# Measured values reported in patent US20140315889A1, “HYDROXAMATE DERIVATIVES FOR HDAC INHIBITOR, AND THE PHARMACEUTICAL COMPOSITION COMPRISING THEREOF” (CHONG KUN DANG PHARMACEUTICAL CORP., priority 2011, published 2014).
# Key:
# [1] = target: T1, human recombinant HDAC6 (Homo sapiens, UniProt Q9UBN7); assay: HDAC enzyme activity test, HDAC6; format: biochemical; conditions: Table 12; for Selectivity for HDAC6, HD1/HD6: ratio HDAC1 IC50 / HDAC6 IC50; for IC50: read-out: Inhibition ability (IC50) HDAC6
# T1 construct: purchased Calibiochem Co. (so in the source) 382180
# T1 sequence (Q9UBN7 1-1215): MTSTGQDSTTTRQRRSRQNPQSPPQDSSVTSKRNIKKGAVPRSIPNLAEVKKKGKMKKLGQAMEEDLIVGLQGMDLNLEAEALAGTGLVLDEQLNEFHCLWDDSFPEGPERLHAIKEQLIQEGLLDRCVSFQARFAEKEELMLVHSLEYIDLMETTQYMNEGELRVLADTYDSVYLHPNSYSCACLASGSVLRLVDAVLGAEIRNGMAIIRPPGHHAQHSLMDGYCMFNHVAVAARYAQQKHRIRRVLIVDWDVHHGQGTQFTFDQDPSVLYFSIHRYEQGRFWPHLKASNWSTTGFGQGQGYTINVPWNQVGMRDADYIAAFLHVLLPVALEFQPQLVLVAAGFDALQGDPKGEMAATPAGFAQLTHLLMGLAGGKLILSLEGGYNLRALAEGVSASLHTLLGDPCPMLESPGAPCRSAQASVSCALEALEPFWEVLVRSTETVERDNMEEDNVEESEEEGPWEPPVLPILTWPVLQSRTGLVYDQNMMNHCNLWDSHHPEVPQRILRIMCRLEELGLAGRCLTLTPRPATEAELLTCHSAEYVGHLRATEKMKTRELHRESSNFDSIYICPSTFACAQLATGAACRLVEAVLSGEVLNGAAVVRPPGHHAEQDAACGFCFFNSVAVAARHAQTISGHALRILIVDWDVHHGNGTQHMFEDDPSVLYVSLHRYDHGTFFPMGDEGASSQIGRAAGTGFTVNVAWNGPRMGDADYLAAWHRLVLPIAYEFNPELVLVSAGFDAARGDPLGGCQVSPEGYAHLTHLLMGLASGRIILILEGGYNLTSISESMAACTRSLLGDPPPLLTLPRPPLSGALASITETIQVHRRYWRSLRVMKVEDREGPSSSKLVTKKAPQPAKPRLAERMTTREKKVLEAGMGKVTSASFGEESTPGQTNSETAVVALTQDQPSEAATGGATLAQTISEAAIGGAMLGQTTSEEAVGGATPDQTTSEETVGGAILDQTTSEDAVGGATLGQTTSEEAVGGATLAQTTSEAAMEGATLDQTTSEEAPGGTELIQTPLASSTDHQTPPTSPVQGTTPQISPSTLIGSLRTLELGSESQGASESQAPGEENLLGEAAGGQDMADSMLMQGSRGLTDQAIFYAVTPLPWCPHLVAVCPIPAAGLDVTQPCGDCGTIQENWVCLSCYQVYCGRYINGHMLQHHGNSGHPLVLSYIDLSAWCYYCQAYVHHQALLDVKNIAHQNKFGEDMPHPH
# Experimental: (§1) Then, 0.3 μg of enzyme and 10 μM of substrate per well were added, reacted at 30° C. for 60 minutes. Thereto, Fluor de Lys® Developer II (BML-KI176) was added and reacted for 30 minutes. […] From the data, the respective IC50 were calculated by GraphPad Prism 4.0 program.
# [2] = target: T2, Human recombinant HDAC1 (Homo sapiens, UniProt Q13547); assay: HDAC enzyme activity test, HDAC1; format: biochemical; conditions: Table 12; read-out: Inhibition ability (IC50) HDAC1
# T2 construct: purchased Enzo Life Science Co. (named for the kit; assigned to the enzyme from the BML- catalogue prefix) BML-SE456
# T2 sequence (Q13547 whole entry): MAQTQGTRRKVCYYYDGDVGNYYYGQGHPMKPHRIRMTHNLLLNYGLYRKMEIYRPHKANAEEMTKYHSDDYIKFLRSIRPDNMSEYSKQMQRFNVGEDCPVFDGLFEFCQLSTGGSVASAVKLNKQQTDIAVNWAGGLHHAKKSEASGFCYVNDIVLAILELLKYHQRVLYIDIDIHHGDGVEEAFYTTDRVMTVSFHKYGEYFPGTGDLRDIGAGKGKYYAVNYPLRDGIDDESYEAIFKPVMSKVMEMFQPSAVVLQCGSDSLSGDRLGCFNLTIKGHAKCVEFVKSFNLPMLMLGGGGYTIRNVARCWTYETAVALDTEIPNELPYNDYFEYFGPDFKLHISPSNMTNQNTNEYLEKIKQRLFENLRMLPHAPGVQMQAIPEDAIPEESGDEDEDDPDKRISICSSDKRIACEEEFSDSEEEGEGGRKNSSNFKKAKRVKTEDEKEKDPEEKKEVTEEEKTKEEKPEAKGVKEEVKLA
# Experimental: as §1
Structure (SMILES),"Selectivity for HDAC6, HD1/HD6 [1]",IC50 [1],IC50 [2]
"O=C(NO)c1ccc(Cn2c3c(c4ccccc42)C(=O)C(CN2CCCC2)CC3)cc1 (stereo not drawn) [Compound 88, N-hydroxy-4-((4-oxo-3-(pyrrolidin-1-ylmethyl)-1,2,3,4-tetrahydrocarbazol-9-yl)methyl)benzamide]",358.7,0.0111 µM,3.97 µM
"O=C(NO)c1ccc(Cn2c3c(c4ccccc42)C(=O)CCC3)cc1 [Compound 99, N-hydroxy-4-((4-oxo-1,2,3,4-tetrahydrocarbazol-9-yl)methyl)benzamide]",163.9,0.0164 µM,2.68 µM
"Cc1nn(Cc2ccc(C(=O)NO)cc2)c2c1C(=O)CC(C)(C)C2 [Compound 101, N-hydroxy-4-((3,6,6-trimethyl-4-oxo-4,5,6,7-tetrahydroindazol-1-yl)methyl)benzamide]",135.1,0.0122 µM,1.65 µM
"CC1CN(CC2CCc3c(c4ccccc4n3Cc3ccc(C(=O)NO)cc3)C2=O)CC(C)O1 (stereo not drawn) [Compound 110, 4-((3-((2,6-dimethylmorpholino)methyl)-4-oxo-1,2,3,4-tetrahydrocarbazol-9-yl)methyl)-N-hydroxybenzamide]",80,0.0112 µM,0.896 µM
"CN1CCN(CC2CCc3c(c4ccccc4n3Cc3ccc(C(=O)NO)cc3)C2=O)CC1 (stereo not drawn) [Compound 111, N-hydroxy-4-((3-((4-methylpiperazin-1-yl)methyl)-4-oxo-1,2,3,4-tetrahydrocarbazol-9-yl)methyl)benzamide]",338.2,0.0122 µM,4.14 µM
"CCN1CCN(CC2CCc3c(c4ccccc4n3Cc3ccc(C(=O)NO)cc3)C2=O)CC1 (stereo not drawn) [Compound 112, 4-((3-((4-ethylpiperazin-1-yl)methyl)-4-oxo-1,2,3,4-tetrahydrocarbazol-9-yl)methyl)-N-hydroxy benzamide]",310.6,0.0149 µM,4.62 µM
"CC(C)N1CCN(CC2CCc3c(c4ccccc4n3Cc3ccc(C(=O)NO)cc3)C2=O)CC1 (stereo not drawn) [Compound 113, N-hydroxy-4-((3-((4-isopropylpiperazin-1-yl)methyl)-4-oxo-1,2,3,4-tetrahydrocarbazol-9-yl)methyl)benzamide]",287.1,0.0085 µM,2.44 µM
COCCN1CCN(CC2CCc3c(c4ccccc4n3Cc3ccc(C(=O)NO)cc3)C2=O)CC1 (stereo not drawn) [Compound 114],327.1,0.0177 µM,5.79 µM
"O=C(NO)c1ccc(Cn2c3c(c4ccccc42)C(=O)C(CN2CC(F)(F)C2)CC3)cc1 (stereo not drawn) [Compound 121, 4-((3-((3,3-difluoroazetidin-1-yl)methyl)-4-oxo-1,2,3,4-tetrahydrocarbazol-9-yl)methyl)-N-hydroxybenzamide]",437.3,0.00851 µM,3.72 µM
"CC1(C)Cc2c(c3ccccc3n2Cc2ccc(C(=O)NO)cc2)C(=O)C1CN1CCOCC1 (stereo not drawn) [Compound 122, 4-((2,2-dimethyl-3-(morpholinomethyl)-4-oxo-1,2,3,4-tetrahydrocarbazol-9-yl)methyl)-N-hydroxybenzamide]",153,0.041 µM,6.27 µM
"O=C(NO)c1ccc(Cn2c3c(c4ccccc42)C(=O)C(CN2CCC(F)(F)C2)CC3)cc1 (stereo not drawn) [Compound 123, 4-((3-((3,3-difluoropyrrolidin-1-yl)methyl)-4-oxo-1,2,3,4-tetrahydrocarbazol-9-yl)methyl)-N-hydroxybenzamide]",539.8,0.00661 µM,3.57 µM
"Cc1nccn1CC1C(=O)c2c(n(Cc3ccc(C(=O)NO)cc3)c3ccccc23)CC1(C)C (stereo not drawn) [Compound 126, 4-((2,2-dimethyl-3-((2-methyl-1H-imidazol-1-yl)methyl)-4-oxo-1,2,3,4-tetrahydrocarbazol-9-yl)methyl)-N-hydroxybenzamide]",163.3,0.0355 µM,5.8 µM
"O=C(NO)c1ccc(Cn2c3c(c4ccccc42)C(=O)C(CN2CCN(c4ccc(F)cc4)CC2)CC3)cc1 (stereo not drawn) [Compound 127, 4-((3-((4-(4-fluorophenyl)piperazin-1-yl)methyl)-4-oxo-1,2,3,4-tetrahydrocarbazol-9-yl)methyl)-N-hydroxybenzamide]",622.7,0.00851 µM,5.3 µM
"Cc1ccc(N2CCN(CC3CCc4c(c5ccccc5n4Cc4ccc(C(=O)NO)cc4)C3=O)CC2)cc1C (stereo not drawn) [Compound 128, 4-((3-((4-(3,4-dimethylphenyl)piperazin-1-yl)methyl)-4-oxo-1,2,3,4-tetrahydrocarbazol-9-yl)methyl)-N-hydroxybenzamide]",198.6,0.041 µM,8.14 µM
"CN(C)CC1C(=O)c2c(n(Cc3ccc(C(=O)NO)cc3)c3ccccc23)CC1(C)C (stereo not drawn) [Compound 129, 4-((3-((dimethylamino)methyl)-2,2-dimethyl-4-oxo-1,2,3,4-tetrahydrocarbazol-9-yl)methyl)-N-hydroxybenzamide]",642.7,0.00661 µM,4.25 µM
"CS(=O)(=O)N1CCN(CC2CCc3c(c4ccccc4n3Cc3ccc(C(=O)NO)cc3)C2=O)CC1 (stereo not drawn) [Compound 130, N-hydroxy-4-((3-((4-(methylsulfonyl)piperazin-1-yl)methyl)-4-oxo-1,2,3,4-tetrahydrocarbazol-9-yl)methyl)benzamide]",564.9,0.0047 µM,2.64 µM
"CC1(C)CCc2c(c3ccccc3n2Cc2ccc(C(=O)NO)cc2)C1=O [Compound 131, 4-((3,3-dimethyl-4-oxo-1,2,3,4-tetrahydrocarbazol-9-yl)methyl)-N-hydroxybenzamide]",296.6,0.0091 µM,2.69 µM
"Cc1cn(Cc2ccc(C(=O)NO)cc2)c2c1C(=O)CC(C)(C)C2 [Compound 136, N-hydroxy-4-((3,6,6-trimethyl-4-oxo-4,5,6,7-tetrahydro-1H-indol-1-yl)methyl)benzamide]",380.3,0.00858 µM,3.26 µM
"CC(C)(C)OC(=O)N1CCN(CC2CCc3c(c4ccccc4n3Cc3ccc(C(=O)NO)cc3)C2=O)CC1 (stereo not drawn) [Compound 140, tert-butyl 4-((9-(4-(hydroxycarbamoyl)benzyl)-4-oxo-2,3,4,9-tetrahydro-1H-carbazol-3-yl)methyl)piperazine-1-carboxylate]",325.2,0.0181 µM,5.9 µM
"O=C(NO)c1ccc(Cn2c3c(c4cc(F)ccc42)C(=O)C(CN2CCOCC2)CC3)cc1 (stereo not drawn) [Compound 141, 4-((6-fluoro-3-(morpholinomethyl)-4-oxo-1,2,3,4-tetrahydrocarbazol-9-yl)methyl)-N-hydroxybenzamide]",850.7,0.0049 µM,4.14 µM
"CC(C)(C)OC(=O)N1CCN(CC2CCc3c(c4cc(F)ccc4n3Cc3ccc(C(=O)NO)cc3)C2=O)CC1 (stereo not drawn) [Compound 144, tert-butyl 4-((6-fluoro-9-(4-(hydroxycarbamoyl)benzyl)-4-oxo-2,3,4,9-tetrahydro-1H-carbazol-3-yl)methyl)piperazin-1-carboxylate]",310.9,0.0271 µM,8.41 µM
"O=C(NO)c1ccc(Cn2c3c(c4cc(F)ccc42)C(=O)C(CN2CC(F)(F)C2)CC3)cc1 (stereo not drawn) [Compound 145, 4-((3-((3,3-difluoroazetidin-1-yl)methyl)-6-fluoro-4-oxo-1,2,3,4-tetrahydrocarbazol-9-yl)methyl)-N-hydroxybenzamide]",925.1,0.0078 µM,7.23 µM
